# Experimental data reported in patent US20200016152A1, “TREATMENT OF DISEASES” (Ampio Pharmaceuticals, Inc., priority 2010, published 2020).
# “Also recorded” adds a separate entry of the source.
# Experiments:
# RhoA = assay: Rho activation assay (GLISA) in retinal endothelial cells; assay type: cell-based, human
# Method: This experiment was performed using a commercially-available Rho activation assay (GLISA) purchased from Cytoskeleton, Denver, Colo., following the manufacturer's protocol. Briefly, passage 8 or 12 human retinal endothelial cells (ACBRI 181, Applied Cell Biology Research Institute, Kirkland, Wash.) were cultured on fibronectin-coated (1 μg/cm^2) 6-well tissue culture plates using EGM-2 culture medium (Lonza) for 24 hours in a 37° C. incubator with 5% CO2 (30,000 cells/well in total volume of 3 ml). Then, the medium was aspirated and replaced with Ultraculture medium supplemented with 0.1% fetal bovine serum, L-glutamine, sodium pyruvate, penicillin/streptomycin and ITSS (insulin, transferrin sodium selenium) (all from Lonza) to serum starve the cells and reduce the background level of RhoA. The cells were cultured for 24 hours in a 37° C. incubator with 5% CO2. Test compounds diluted in HBSS were placed in the incubator to equilibrate before addition to the cells. Then, 150 μl of each test compound was added to the appropriate culture wells, and the plates were incubated in the incubator for an additional 15 minutes. Then, thrombin was added to appropriate wells. After 1 minute, the cells were washed one time with 1.5 ml phosphate buffered saline and were then lysed with 100 μl GLISA lysis buffer supplemented with protease inhibitors. The extracts were scraped, transferred to microcentrifuge tubes and transferred to ice to preserve the active form of RhoA. All extracts were then cleared of debris by spinning at 10,000 rpms for 2 minutes at 4° C. The supernatants were transferred to new tubes and placed back on ice. Aliquots of each extract were removed for the GLISA assay and for protein determinations. All protein concentrations were within 10%, and the extracts were used at the achieved concentrations (equates to 15 total protein per well). The GLISA assay was performed using the reagents supplied in the kit.
# [1] = test system: human renal glomerular microvascular endothelial cells; assay: ECIS transendothelial electrical resistance (TER), glomerular endothelial cells; assay type: cell-based
# Method: Assays were performed to determine the effect of DA-DKP on transendothelial electrical resistance (TER) of human renal glomerular microvascular endothelial cells (ACBRI 128, Cell Systems Corporation (exclusive distributor for Applied Cell Biology Research Institute), Kirkland, Wash.). Electrical resistance was measured using the electric cell-substrate impedance sensing (ECIS) system (ECISZθ, obtained from Applied Biophysics) with 8-well multiple electrode plates (8W10E). Each well of the plates was coated with 5 μg/cm^2 fibronectin in HBSS by adding the fibronectin in a volume of 100 μl per well and incubating the plates for 30 minutes in a 37° C. incubator with 5% CO2. The fibronectin solution was removed, and 400 μl of EGM-2 culture medium (Lonza) was added to each well. The plates were connected to the ECISZθ system and were electrically stabilized. The EGM-2 medium was aspirated and replaced with 200 μl of EGM-2 culture medium containing 100,000 cells per well. The plates were reconnected to the ECISZθ system and incubated for 24 hours in a 37° C. incubator with 5% CO2. The EGM-2 medium was aspirated and replaced with 400 μl of fresh EGM-2 culture medium per well. The plates were reconnected to the ECISZθ system and incubated for 6 hours in a 37° C. incubator with 5% CO2. Solutions of the test compounds in HBSS were prepared and placed in the incubator to equilibrate. The test compounds were then added to appropriate wells at the following final concentrations: DA-DKP (100 μM) (Sigma) and TNFα (1 ng/ml) (Sigma). ECIS (resistance) was monitored for 90 hours.
# [2] = test system: human retinal endothelial cells; assay: ECIS transendothelial electrical resistance (TER), retinal endothelial cells, 96-well plates; assay type: cell-based
# Method: Assays were performed to determine the effect of DA-DKP on transendothelial electrical resistance (TER) of human renal glomerular microvascular endothelial cells (ACBRI 128, Cell Systems Corporation (exclusive distributor for Applied Cell Biology Research Institute), Kirkland, Wash.). Electrical resistance was measured using the electric cell-substrate impedance sensing (ECIS) system (ECISZθ, obtained from Applied Biophysics) with 8-well multiple electrode plates (8W10E). Each well of the plates was coated with 5 μg/cm^2 fibronectin in HBSS by adding the fibronectin in a volume of 100 μl per well and incubating the plates for 30 minutes in a 37° C. incubator with 5% CO2. The fibronectin solution was removed, and 400 μl of EGM-2 culture medium (Lonza) was added to each well. The plates were connected to the ECISZθ system and were electrically stabilized. […] ECIS (resistance) was monitored for 90 hours.
# Assays were performed to determine the effect of DA-DKP on transendothelial electrical resistance (TER) of human retinal endothelial cells (ACBRI 181, Cell Systems Corporation (exclusive distributor for Applied Cell Biology Research Institute), Kirkland, Wash.). Electrical resistance was measured using the electric cell-substrate impedance sensing (ECIS) system (ECISZθ, obtained from Applied Biophysics) as described in Example 1, but using 96-well multiple electrode plates […].
# [3] = test system: human retinal endothelial cells; assay: Actin stress fiber formation (rhodamine-phalloidin F-actin staining); assay type: cell-based; conditions: 15 minutes and 3 hours
# Method: Passage 12 human retinal endothelial cells (ACBRI 181, Cell Systems Corporation (exclusive distributor for Applied Cell Biology Research Institute), Kirkland, Wash.) were seeded into 16-chamber glass slides coated with 5 μg/cm^2 fibronectin at 5000 cells per well in a total volume of 200 μl of EGM-2 medium (Lonza). The slides were cultured in a 37° C. incubator with 5% CO2 for 48 hours with daily medium changes. Then, the test compounds (DA-DKP, S1P and TNFα), diluted in Hanks Balanced Salt Solution (HBSS; Lonza), were added to give the following final concentrations: DA-DKP (100 μM) (Sigma), TNFα (1 ng/ml) (Sigma), and S1P (1 μM) (Sigma). The slides were incubated with the test compounds for 15 minutes or 3 hours in a 37° C. incubator with 5% CO2. After this incubation, the medium was aspirated, and the cells were fixed using 3.6% formaldehyde in phosphate buffered saline (PBS) for ten minutes at room temperature. All wells were then washed two times with 100 μl PBS. The cells were permeabilized using a 0.1% Triton X-100 in PBS for 5 minutes. All wells were then washed two times with 100 μl PBS, and 50 μl of a 1:40 dilution of rhodamine-phalloidin (Invitrogen) in PBS was added to the cells to stain for F-actin and left on the cells for 20 minutes at room temperature. All wells were then washed two times with 100 μl PBS. Then 100 μl PBS was added to each well and the cells were observed and photographed using an inverted microscope using a rhodamine (ex530/em590) filter.
# [4] = test system: passage 6 human retinal endothelial cells; assay: ECIS transendothelial electrical resistance (TER), passage 6 retinal endothelial cells; assay type: cell-based; conditions: for ECIS as compared to untreated cells: monitored 50 hours
# Method: Assays were performed to determine the effect of MR-DKP (a diketopiperazine wherein R^1 in formula I is the side chain of methionine and R^2 is side chain of arginine) on transendothelial electrical resistance (TER) of passage 6 human retinal endothelial cells (Applied Cell Systems Corporation (exclusive distributor for Applied Cell Biology Research Institute), Kirkland, Wash.). Electrical resistance was measured using the electric cell-substrate impedance sensing (ECIS) system (ECISZθ, obtained from Applied Biophysics) with 8-well multiple electrode plates (8W10E). Each well of the plates was stabilized by adding 250 μl of 10 mM cysteine (Sigma) in sterile water to each well and incubating for 30 minutes at room temperature. The wells were then washed two times with 150 μl of sterile water to remove the cysteine. All wells were then coated with 10 μg/cm^2 collagen by diluting the stock solution (0.5 mg/ml Type IV collagenin 0.25% acetic acid (Sigma) in sterile water and adding 150 μl of the resulting solution to each well. The collagen solution was incubated on the plates at 37° C. for 120 minutes and then removed. The wells were washed two times with 400 μl sterile water to remove the collagen. Next, 400 μl of EGM-2 culture medium (Lonza) was added to each well. The plates were connected to the ECISZθ system and were electrically stabilized. The EGM-2 medium was aspirated and replaced with 400 μl of EGM-2 culture medium containing 100,000 cells per well. The plates were reconnected to the ECISZθ system and incubated for 24 hours in a 37° C. incubator with 5% CO2. The EGM-2 medium was aspirated and replaced with 400 μl of EGM-2 culture medium. The plates were reconnected to the ECISZθ system and incubated for 2 hours in a 37° C. incubator with 5% CO2. Solutions of the test compound in HBSS were prepared and placed in the incubator to equilibrate. The test compound was then added to appropriate wells at the following final concentrations: MR-DKP (50 μM and 100 ECIS (resistance) was monitored for 50 hours.
# Example 5 was repeated, except that the diketopiperazine used was YE-DKP (a diketopiperazine wherein R^1 in formula I is the side chain of glutamic acid and R^2 is the side chain of tyrosine). […] The increase was about 20% at its maximum.
# [5] = passage 8 cells, 100 μM + 0.1 U/ml thrombin
# [6] = passage 8 cells, 100 μM, no thrombin
# [7] = passage 12 cells, 100 μM + 0.1 U/ml thrombin
# [8] = passage 12 cells, 100 μM, no thrombin
# [9] = passage 12 cells, 1.0 μM + 0.1 U/ml thrombin
# [10] = passage 12 cells, 1.0 μM, no thrombin
# [11] = passage 8 cells, 10.0 μM + 0.1 U/ml thrombin
# [12] = passage 8 cells, 10.0 μM, no thrombin
# [13] = passage 12 cells, 10.0 μM + 0.1 U/ml thrombin
# [14] = passage 12 cells, 10.0 μM, no thrombin
smiles,measurement,setting,value
C[C@@H]1NC(=O)[C@H](CC(=O)O)NC1=O [DA-DKP],Mean OD (active RhoA),RhoA; [5],0.377
same,Percent Inhibition vs. Thrombin,RhoA; [5],40.04%
same,Mean OD (active RhoA),RhoA; [6],0.110
same,Percent Inhibition vs. Untreated Control,RhoA; [6],−7.88%
same,Mean OD (active RhoA),RhoA; [7],0.752
same,Percent Inhibition vs. Thrombin,RhoA; [7],46.82%
same,Mean OD (active RhoA),RhoA; [8],0.389
same,Percent Inhibition vs. Untreated Control,RhoA; [8],14.52%
same,effect on TNFα-induced drop in ECIS,"[1]; 100 μM DA-DKP with TNFα 1 ng/ml, not significant",prevent some of the TNFα-induced drop in ECIS
same,ECIS increase persisting after treatment,[1]; 100 μM alone,35 h
same,start of ECIS increase after treatment,[1]; 100 μM alone,about 5.0 hours
same,time at which ECIS increase reached significance after treatment,[1]; 100 μM alone,12 h
same,ECIS (resistance) as compared to untreated cells,"[1]; 100 μM alone, glomerular endothelial cells, monitored 90 hours",increase of ECIS
same,"ECIS (TER) increase, comparison of doses",[2]; 100 μM,greatest increase
same,ECIS (TER),"[2]; doses 0.5 μM, 5.0 μM, 50 μM and 100",dose-dependent increase in ECIS (TER)
same,effect on cortical rings of S1P,[3]; 100 μM DA-DKP with S1P 1 μM,enhance the cortical rings; also recorded: strengthen the protective effects of S1P
same,effect on stress fibers caused by TNFα,[3]; 100 μM DA-DKP with TNFα 1 ng/ml,decreased the stress fiber formation and/or the thickness of the fibers; also recorded: reversed the formation of stress fibers induced by TNFα
C[C@@H]1C[C@H]2[C@@H]3CCC4=CC(=O)C=C[C@]4(C)[C@@]3(F)[C@@H](O)C[C@]2(C)[C@@]1(O)C(=O)CO [Dexamethasone],Mean OD (active RhoA),RhoA; [9],0.826
same,Percent Inhibition vs. Thrombin,RhoA; [9],33.48%
same,Mean OD (active RhoA),RhoA; [10],0.428
same,Percent Inhibition vs. Untreated Control,RhoA; [10],5.83%
CSCC[C@@H]1NC(=O)[C@H](CCCNC(=N)N)NC1=O [MR-DKP],ECIS increase at its maximum,[4]; 50 μM,around 20%
same,"brief elevation in resistance, time window",[4]; 50 μM,2 to 5 h
same,start of ECIS increase,[4]; 50 μM,about 15 hours
same,time at which ECIS increase became significant,[4]; 50 μM,about 18 hours
same,time at which resistance increased again,[4]; 50 μM,about 30 hours
same,time at which resistance returned to the levels of the control,[4]; 50 μM,28 to 29 h
same,time of reaching significance again,[4]; 50 μM,about 33 hours
same,persistence of ECIS increase,"[4]; 50 μM, after the second increase",persisted for the remainder of the experiment
same,ECIS as compared to untreated cells,[4]; 50 μM,increase in ECIS
same,ECIS increase at its maximum,[4]; 100 μM,around 20%
same,persistence of ECIS increase,[4]; 100 μM,persisted for the remainder of the experiment
same,start of ECIS increase,[4]; 100 μM,about 15 hours
same,time at which ECIS increase became significant,[4]; 100 μM,about 18 hours
same,time of reaching significance again,[4]; 100 μM,about 33 hours
same,ECIS as compared to untreated cells,[4]; 100 μM,increase in ECIS
O=c1cc(N2CCOCC2)oc2c(-c3ccccc3)cccc12 [PI3 kinase inhibitor LY 294002],Mean OD (active RhoA),RhoA; [11],0.433
same,Percent Inhibition vs. Thrombin,RhoA; [11],27.86%
same,Mean OD (active RhoA),RhoA; [12],0.056
same,Percent Inhibition vs. Untreated Control,RhoA; [12],45.32%
same,Mean OD (active RhoA),RhoA; [13],0.685
same,Percent Inhibition vs. Thrombin,RhoA; [13],58.73%
same,Mean OD (active RhoA),RhoA; [14],0.370
same,Percent Inhibition vs. Untreated Control,RhoA; [14],18.70%
